Results reported in a melting point compilation (Tetko et al.; mined from patent text by program, amines drawn as free bases though some values may be those of a salt).

Structure (SMILES)	melting point [°C]
N#Cc1cc(N)ccc1CN1CCC(N2CCOCC2)CC1	162 to 165
CN(C)c1ncc2c(=O)n(Cc3ccccn3)sc2n1	145 to 146
O=C(O)Cc1c(C(=O)O)c2cc(Oc3ccc(Cl)cc3)ccc2n1-c1ccc(OC(F)(F)F)cc1	198 to 202
Cc1cccc(C)c1NC(=O)C(C)N1CCN(CCC2CCOc3ccccc32)CC1 (stereo not drawn)	130
O=C(O)c1ccc2c(c1)S(=O)(=O)c1ccc([N+](=O)[O-])cc1C=C2	310 to 312
N#Cc1c(Cl)[nH]c(Cl)c1Cl	> 300
COc1ccc(-c2c(NC(C)(C)Cc3ccccc3)c(=O)c2=O)cc1	150 to 151
COCCOCCOc1cc(N)c(C#N)cc1[N+](=O)[O-]	106 to 108
NS(=O)(=O)c1cccc(-c2noc(-c3cnn4c(C(F)(F)F)cc(-c5ccc(C(F)(F)F)cc5)nc34)n2)c1	262
COc1ccc2c(c1)c1c(n2C)CCC(Cc2nc[nH]c2C)C1=O (stereo not drawn)	227 to 229
CCc1sc2c(c1S(=O)(=O)c1ccc(OCCCN(C)C(C)c3ccc(OC)c(OC)c3)cc1)CN(Cc1ccccc1Cl)CC2 (stereo not drawn)	110
CC1(Cn2c(=O)n(-c3ccccc3)c3ccccc32)Cn2cc([N+](=O)[O-])nc2O1 (stereo not drawn)	234 to 235
CN(C)CC(C)(CSC(=S)N(C)C)[N+](=O)[O-] (stereo not drawn)	75.5 to 78
CCC(O)(c1ccc(OCCCN2CCN(C)CC2)cc1)c1cccc(C(F)(F)F)c1 (stereo not drawn)	129 to 130
NS(=O)(=O)c1ccc(-c2oc3cc(F)ccc3c(=O)c2-c2ccccc2F)cc1	188
O=C(Nc1ccccc1OC(=O)c1ccccc1)c1cc(Cl)c(OC(=O)c2ccccc2)c(Cl)c1	157 to 160
CCOC(=O)C1=C(C(=O)OCC)SCCS1	32 to 36
CC(CCC(=O)C(C)(C)OO)C1CCC2C3CC=C4CC(O)CCC4(C)C3CCC12C (stereo not drawn)	146 to 147
C=C(CC(Cl)(Cl)Cl)c1cc(Cl)nc(Cl)c1	82 to 83

Structure (SMILES)	melting point [°C]
Cc1ccc(-c2ccc3c(c2)C=C(C(=O)Nc2ccc(CN(C)C4CCOCC4)cc2)CCS3(=O)=O)s1	229 to 231
CC(=O)c1ccc(Oc2cccnc2)cc1	45 to 50
COc1ccc(N(CCCC(O)CO)S(=O)(=O)c2c(F)c(F)c(F)c(F)c2F)cc1 (stereo not drawn)	116 to 118
CN(C)CC1Cc2ccccc2N(S(=O)(=O)CCc2ccc(-c3ccccc3)cc2)C1 (stereo not drawn)	108 to 109
COc1ccc(C(=O)N2CCCCc3cc(C4=NNC(=O)SC4C)ccc32)cc1OC (stereo not drawn)	207
CC(C)c1ccc2c(c1)OC1(O)c3ccccc3C(=O)C21N (stereo not drawn)	151 to 152
CNC(=O)ON(Cc1ccc(OCc2ccccc2)cc1)C(C)=O	101 to 102
c1cc2c3c(c1)C1CCCCCCC1N3CCNC2 (stereo not drawn)	58 to 63
CCCOc1ccccc1-c1nc(O)cc(O)n1	224 to 225
Oc1ccc(-c2nc(-c3ccccc3)[nH]c2-c2ccc(O)cc2)cc1	327 to 330
COc1ccc(/C=C2/c3cc(OC)c(OC)cc3CCN2C(=O)C2CC2)cc1OC	148 to 151
CC(C)(C)OC(=O)N1CCc2c(n(CCOc3ccccc3)c3c(Cl)cc(Cl)cc23)CC1	154 to 155
O=C(NCc1ccccc1N1CCOCC1)c1ccn2nc(-c3ccccc3)cc2n1	190 to 192
Cc1cc(-c2nc(-c3ccncc3)nn2C)cc(C)n1	176 to 178
O=[N+]([O-])C=C1NCCN1Cc1cc(Br)no1	202
C=CCN(CC=C)Cc1noc(-c2ncn3c2[C@@H]2CCN2C(=O)c2c(Cl)cccc2-3)n1	190 to 192
CCOC(=O)N1CCC(Nc2ccc(Cl)cc2N)CC1	150
CCOc1c(OC)c(OC)cc(C(=O)OC)c1-c1c(C(=O)OC)cc(OC)c2c1OCO2	93 to 94
COc1ccc(CC(=O)NC(=NOCC2CC2)c2c(F)cccc2C(F)(F)F)cc1	75 to 76
